In ChEMBL document CHEMBL1125524, “Adenosine A1 antagonists. 2. Structure-activity relationships on diuretic activities and protective effects against acute renal failure” (J Med Chem, 1992):

How the values were obtained:
Rattus norvegicus [1] = assay: Urea nitrogen concentration measured after intraperitoneal administration of 1 mg/kg of compound to rats(vehicle 195.8+/-14.4); assay type: functional; details: 1 mg/kg
Rattus norvegicus [2] = assay: Ratio of sodium ion/potassium ion concentration in treated rats to that in control rats, at a peroral dose of 1.6 mg/Kg; assay type: functional
Rattus norvegicus [3] = assay: Ratio of sodium ion/potassium ion concentration in treated rats to that in control rats, at a peroral dose of 25 mg/Kg; assay type: functional
Adenosine receptor A1 = target: T1, Adenosine receptor A1 (Cavia porcellus, UniProt P47745)
T1 sequence (P47745 whole entry): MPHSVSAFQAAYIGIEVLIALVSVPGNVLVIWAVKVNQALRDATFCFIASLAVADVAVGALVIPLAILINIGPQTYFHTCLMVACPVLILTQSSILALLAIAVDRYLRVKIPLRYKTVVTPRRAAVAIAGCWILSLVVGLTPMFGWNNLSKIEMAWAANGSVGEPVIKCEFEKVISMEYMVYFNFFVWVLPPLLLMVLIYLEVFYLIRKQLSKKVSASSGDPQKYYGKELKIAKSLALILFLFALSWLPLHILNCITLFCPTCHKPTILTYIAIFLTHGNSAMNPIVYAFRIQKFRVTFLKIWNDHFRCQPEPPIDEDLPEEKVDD
Description: Binding affinity against adenosine A1 receptor in guinea pig forebrain membranes using N6-[3H]cyclohexyladenosine as radioligand

Rattus norvegicus [4] = species: Rattus norvegicus; assay: animal or person; details: ip, read-out: Inhibition, dose 1 mg/kg, route intraperitoneal
Adenosine A2 receptor = Adenosine A2 receptor (Rattus norvegicus, UniProt P29276+P30543)
Rattus norvegicus [5] = assay: Effect on urinary excretion potassium and sodium after oral administration of 25 mg/kg to rats(potassium and sodium excretion in control rat is 0.180+/-0.024); assay type: functional, Urine
Rattus norvegicus [6] = assay: Oral diuretic activity was measured after oral administration of 25 mg/kg to rats(control volume is 1.00+/-0.09); assay type: functional, Urine
Rattus norvegicus [7] = assay: Serum creatinine concentration measured after intraperitoneal administration of 1 mg/kg of compound to rats(vehicle 5.07+/-0.33); assay type: functional; details: 1 mg/kg
Rattus norvegicus [8] = assay: Percent inhibition of Urea nitrogen by the compound given as ratio of UN value in treated to vehicle treated ones after intraperitoneal administration of 1 mg/kg of compound to rats(vehicle 195.8+/-14.4); assay type: functional; details: Rattus norvegicus, ip
Rattus norvegicus [9] = assay: Ratio of urinary excretion value (urinary volume) in treated rats to that in control rats, at a peroral dose of 1.6 mg/Kg; assay type: functional, Urine
Rattus norvegicus [10] = assay: Ratio of urinary excretion value (Na+ concentration) in treated rats to that in control rats, at a peroral dose of 25 mg/Kg; assay type: functional, Urine
Rattus norvegicus [11] = assay: Ratio of urinary excretion value (Na+ concentration) in treated rats to that in control rats, at a peroral dose of 1.6 mg/Kg; assay type: functional, Urine
Rattus norvegicus [12] = assay: Ratio of urinary excretion value (urinary volume) in treated rats to that in control rats, at a peroral dose of 25 mg/Kg; assay type: functional, Urine
Rattus norvegicus [13] = assay: Oral diuretic activity was measured after oral administration of 1.6 mg/kg to rats(control volume is 0.79+/-0.12); assay type: functional, Urine
Rattus norvegicus [14] = assay: Effect on urinary excretion potassium and sodium after oral administration of 1.6 mg/kg to rats(potassium and sodium excretion in control rat is 0.105+/-0.002); assay type: functional, Urine
Rattus norvegicus [15] = assay: Serum creatinine concentration measured after intraperitoneal administration of 1 mg/kg of compound to rats(vehicle 5.43+/-0.11); assay type: functional
Rattus norvegicus [16] = assay: Effect on urinary excretion potassium and sodium after oral administration of 0.4 mg/kg to rats(potassium and sodium excretion in control rat is 0.132+/-0.010); assay type: functional, Urine
Rattus norvegicus [17] = assay: Ratio of urinary excretion value (Na+ concentration) in treated rats to that in control rats, at a peroral dose of 0.4 mg/Kg; assay type: functional, Urine
Rattus norvegicus [18] = assay: Urea nitrogen concentration measured after intraperitoneal administration of 1 mg/kg of compound to rats(vehicle 182.5+/-3.4); assay type: functional
Rattus norvegicus [19] = assay: Effect on urinary excretion potassium and sodium after oral administration of 1.6 mg/kg to rats(potassium and sodium excretion in control rat is 0.193+/-0.016); assay type: functional, Urine
Rattus norvegicus [20] = assay: Percent inhibition of serum creatinine by the compound given as ratio of Cr value in treated to vehicle treated ones after intraperitoneal administration of 1 mg/kg of compound to rats(vehicle 5.43+/-0.11); assay type: functional; details: ip
Rattus norvegicus [21] = assay: Oral diuretic activity was measured after oral administration of 0.4 mg/kg to rats(control volume is 0.83+/-0.08); assay type: functional, Urine
Rattus norvegicus [22] = assay: Ratio of sodium ion/potassium ion concentration in treated rats to that in control rats, at a peroral dose of 0.1 mg/Kg; assay type: functional
Rattus norvegicus [23] = assay: Oral diuretic activity was measured after oral administration of 1.6 mg/kg to rats(control volume is 0.91+/-0.08); assay type: functional, Urine
Rattus norvegicus [24] = assay: Effect on urinary excretion potassium and sodium after oral administration of 25 mg/kg to rats(potassium and sodium excretion in control rat is 0.129+/-0.026); assay type: functional, Urine
Rattus norvegicus [25] = assay: Ratio of urinary excretion value (urinary volume) in treated rats to that in control rats, at a peroral dose of 0.1 mg/Kg; assay type: functional, Urine
Rattus norvegicus [26] = assay: Ratio of sodium ion/potassium ion concentration in treated rats to that in control rats, at a peroral dose of 0.4 mg/Kg; assay type: functional
Rattus norvegicus [27] = assay: Ratio of urinary excretion value (urinary volume) in treated rats to that in control rats, at a peroral dose of 0.4 mg/Kg; assay type: functional, Urine
Rattus norvegicus [28] = assay: Effect on urinary excretion potassium and sodium after oral administration of 0.1 mg/kg to rats(potassium and sodium excretion in control rat is 0.169+/-0.018); assay type: functional, Urine
Rattus norvegicus [29] = assay: Oral diuretic activity was measured after oral administration of 25 mg/kg to rats(control volume is 1.00+/-0.13); assay type: functional, Urine
Rattus norvegicus [30] = assay: Ratio of urinary excretion value (Na+ concentration) in treated rats to that in control rats, at a peroral dose of 6.25 mg/Kg; assay type: functional, Urine
Rattus norvegicus [31] = assay: Oral diuretic activity was measured after oral administration of 0.1 mg/kg to rats(control volume is 1.10+/-0.09); assay type: functional, Urine
Rattus norvegicus [32] = assay: Ratio of urinary excretion value (urinary volume) in treated rats to that in control rats, at a peroral dose of 6.25 mg/Kg; assay type: functional, Urine
Rattus norvegicus [33] = assay: Ratio of urinary excretion value (Na+ concentration) in treated rats to that in control rats, at a peroral dose of 0.1 mg/Kg; assay type: functional, Urine
Rattus norvegicus [34] = assay: Percent inhibition of Urea nitrogen by the compound given as ratio of UN value in treated to vehicle treated ones after intraperitoneal administration of 1 mg/kg of compound to rats(vehicle 182.5+/-3.4); assay type: functional; details: ip
Rattus norvegicus [35] = assay: Effect on urinary excretion potassium and sodium after oral administration of 1.6 mg/kg to rats(potassium and sodium excretion in control rat is 0.174+/-0.013); assay type: functional, Urine
Rattus norvegicus [36] = assay: Percent inhibition of Urea nitrogen by the compound given as ratio of UN value in treated to vehicle treated ones after intraperitoneal administration of 1 mg/kg of compound to rats(vehicle 138.8+/-7.8); assay type: functional; details: ip
Rattus norvegicus [37] = assay: Urea nitrogen concentration measured after intraperitoneal administration of 1 mg/kg of compound to rats(vehicle 138.8+/-7.8); assay type: functional
Rattus norvegicus [38] = assay: Percent inhibition of serum creatinine by the compound given as ratio of Cr value in treated to vehicle treated ones after intraperitoneal administration of 0.1 mg/kg of compound to rats(vehicle 6.90+/-0.2); assay type: functional; details: ip
Rattus norvegicus [39] = assay: Urea nitrogen concentration measured after intraperitoneal administration of 0.1 mg/kg of compound to rats(vehicle 171.3+/-6.4); assay type: functional
Rattus norvegicus [40] = assay: Serum creatinine concentration measured after intraperitoneal administration of 1 mg/kg of compound to rats(vehicle 4.74+/-0.31); assay type: functional
Rattus norvegicus [41] = assay: Oral diuretic activity was measured after oral administration of 1.6 mg/kg to rats(control volume is 0.86+/-0.09); assay type: functional, Urine
Rattus norvegicus [42] = assay: Serum creatinine concentration measured after intraperitoneal administration of 0.1 mg/kg of compound to rats(vehicle 6.90+/-0.2); assay type: functional
Rattus norvegicus [43] = assay: Percent inhibition of Urea nitrogen by the compound given as ratio of UN value in treated to vehicle treated ones after intraperitoneal administration of 0.1 mg/kg of compound to rats(vehicle 171.3+/-6.4); assay type: functional; details: ip
Rattus norvegicus [44] = assay: Percent inhibition of serum creatinine by the compound given as ratio of Cr value in treated to vehicle treated ones after intraperitoneal administration of 1 mg/kg of compound to rats(vehicle 4.74+/-0.31); assay type: functional; details: ip

CCCn1c(=O)c2nc(C3CC4CCC3C4)[nH]c2n(CCC)c1=O (stereo in doubt; 19)
UN (Rattus norvegicus [1]): 101 mg/dL
Na+/K+ (Rattus norvegicus [2]): 2.04
Na+/K+ (Rattus norvegicus [3]): 1.84
Ki (Adenosine receptor A1): 3.8 nM
inhibition in vivo at 1 mg/kg (Rattus norvegicus [4]): 49%
Ki (Adenosine A2 receptor): 440 nM
Na (Rattus norvegicus [5]): 0.427 m equiv 6hr-1 100g-1
Urine volume (Rattus norvegicus [6]): 2.54 ml 6hr-1 100g-1
Cr (Rattus norvegicus [7]): 2.59 mg/dL
inhibition in vivo at 1 mg/kg (Rattus norvegicus [8]): 48%
T/C (Rattus norvegicus [9]): 3.14
T/C (Rattus norvegicus [10]): 2.37
T/C (Rattus norvegicus [11]): 3.22
T/C (Rattus norvegicus [12]): 2.54
Urine volume (Rattus norvegicus [13]): 2.48 ml 6hr-1 100g-1
Na (Rattus norvegicus [14]): 0.337 m equiv 6hr-1 100g-1

CCCn1c(=O)c2[nH]c(C3CCCC3)nc2n(CCC)c1=O [1,3-DIPROPYL-8-CYCLOPENTYLXANTHINE [DPCPX]]
Cr (Rattus norvegicus [15]): 3.75 mg/dL
Na (Rattus norvegicus [16]): 0.302 m equiv 6hr-1 100g-1
T/C (Rattus norvegicus [17]): 2.28
UN (Rattus norvegicus [18]): 131.7 mg/dL
Na (Rattus norvegicus [19]): 0.449 m equiv 6hr-1 100g-1
inhibition in vivo at 1 mg/kg (Rattus norvegicus [20]): 31%
Urine volume (Rattus norvegicus [21]): 2.05 ml 6hr-1 100g-1
Na+/K+ (Rattus norvegicus [22]): 1.54
Urine volume (Rattus norvegicus [23]): 2.54 ml 6hr-1 100g-1
Na+/K+ (Rattus norvegicus [2]): 1.57
Na+/K+ (Rattus norvegicus [3]): 1.27
Na (Rattus norvegicus [24]): 0.316 m equiv 6hr-1 100g-1
T/C (Rattus norvegicus [25]): 1.24
Na+/K+ (Rattus norvegicus [26]): 1.76
T/C (Rattus norvegicus [27]): 2.47
Na (Rattus norvegicus [28]): 0.215 m equiv 6hr-1 100g-1
Urine volume (Rattus norvegicus [29]): 1.93 ml 6hr-1 100g-1
T/C (Rattus norvegicus [30]): 1.98
Urine volume (Rattus norvegicus [31]): 1.36 ml 6hr-1 100g-1
T/C (Rattus norvegicus [9]): 2.79
T/C (Rattus norvegicus [10]): 2.46
T/C (Rattus norvegicus [11]): 2.33
T/C (Rattus norvegicus [12]): 1.93
T/C (Rattus norvegicus [32]): 1.87
T/C (Rattus norvegicus [33]): 1.27
inhibition in vivo at 1 mg/kg (Rattus norvegicus [34]): 27%

Cn1c(=O)c2nc(C3CCCC3)[nH]c2n(C)c1=O [8-CYCLOPENTYLTHEOPHYLLINE]
Na (Rattus norvegicus [35]): 0.217 m equiv 6hr-1 100g-1
inhibition in vivo at 1 mg/kg (Rattus norvegicus [36]): 54%
UN (Rattus norvegicus [37]): 63.6 mg/dL
Na+/K+ (Rattus norvegicus [2]): 1.12
Ki (Adenosine receptor A1): 95 nM
inhibition in vivo at 0.1 mg/kg (Rattus norvegicus [38]): -5%
UN (Rattus norvegicus [39]): 168.7 mg/dL
T/C (Rattus norvegicus [30]): 1.82
T/C (Rattus norvegicus [9]): 1.23
T/C (Rattus norvegicus [11]): 1.25
T/C (Rattus norvegicus [32]): 1.64
Cr (Rattus norvegicus [40]): 2.22 mg/dL
Urine volume (Rattus norvegicus [41]): 1.06 ml 6hr-1 100g-1
Cr (Rattus norvegicus [42]): 7.26 mg/dL
inhibition in vivo at 0.1 mg/kg (Rattus norvegicus [43]): 1%
inhibition in vivo at 1 mg/kg (Rattus norvegicus [44]): 53%
